Patent publication US10532040B2, “Methods of treating cancer with herbacetin” (REGENTS OF THE UNIVERSITY OF MINNESOTA, priority 2011, dated 2020)

Biological target: T1, ODC (Homo sapiens, UniProt P11926)
T1 sequence (P11926 1-461): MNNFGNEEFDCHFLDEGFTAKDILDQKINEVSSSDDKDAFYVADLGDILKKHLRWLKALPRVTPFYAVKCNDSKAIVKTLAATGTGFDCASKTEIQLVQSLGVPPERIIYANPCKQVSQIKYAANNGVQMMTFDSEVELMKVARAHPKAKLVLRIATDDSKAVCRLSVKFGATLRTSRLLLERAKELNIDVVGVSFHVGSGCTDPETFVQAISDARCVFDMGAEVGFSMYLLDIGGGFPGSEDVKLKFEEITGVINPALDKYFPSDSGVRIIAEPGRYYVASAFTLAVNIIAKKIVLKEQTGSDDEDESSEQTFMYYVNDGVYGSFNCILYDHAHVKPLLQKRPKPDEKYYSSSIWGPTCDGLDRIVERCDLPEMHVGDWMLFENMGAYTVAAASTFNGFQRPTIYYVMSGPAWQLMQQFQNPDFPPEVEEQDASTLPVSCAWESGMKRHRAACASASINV
Experiment: ODC enzyme assay with recombinant ODC protein
Format: biochemical
Settings: in vitro
Procedure: FIGS. 5A-5E. The effect of herbacetin on ODC activity was assessed in (a) DLD-1 and (b) HCT116 colon cancer cells. Cell lysates were incubated for 15 min with reaction buffer and different doses of herbacetin or DFMO and then incubated at 37° C. for 1 h. Herbacetin (c) and kaempferol (d) were modeled as allosteric inhibitors with the ODC crystal structure. (e) The effect of herbacetin or kaempferol on ODC activity was assessed using a human ODC recombinant protein. Each reaction was incubated at 37° C. for 1 h and ODC activity was measured as the release of CO2 from L-[1-C^14] ornithine. Data are represented as means±S.D. of triplicate values. The asterisk (*) indicates a significant difference (p<0.05) between herbacetin-treated samples compared to untreated or kaempferol-treated samples.
ODC activity was measured as the release of CO2 from L-[1-C^14] ornithine as previously described ([…]).

ODC activity (release of CO2 from L-[1-C^14] ornithine): little effect
SMILES: O=c1c(O)c(-c2ccc(O)cc2)oc2cc(O)cc(O)c12 [kaempferol, reference compound]
